Results from the supplement of paper PMC10307832.

How the values were obtained:
Assay in all cases: relative viability (nuclei count vs DMSO), 5 days (fraction); higher = more cells survive
[1] = test system: COR-L 105
How it was run: (§1)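 Medians of duplicate plates are given as relative viability. That measure is the nuclei count in treated wells divided by the count in vehicle wells. Counts were taken on 4× images of lung cancer cell lines in 1536-well plates, 5 days after pin-tool dosing the day after seeding with one drug alone or a fixed anchor-drug dose plus five library-drug doses (not always all listed) in √10 steps.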

[2] = test system: NCI-H1975
How it was run: as §1

[3] = test system: NCI-H358
How it was run: as §1

[4] = test system: SK-MES-1
How it was run: as §1

[5] = test system: NCI-H2342
How it was run: as §1

[6] = test system: EPLC-272H
How it was run: as §1

[7] = test system: NCI-H460
How it was run: as §1

[8] = test system: A-427
How it was run: as §1

[9] = test system: NCI-H1395
How it was run: as §1

[10] = test system: LCLC-103H
How it was run: as §1

[11] = test system: NCI-H1666
How it was run: as §1

[12] = test system: NCI-H1650
How it was run: as §1

Molecule `Cc1cn(-c2cc(NC(=O)c3ccc(C)c(Nc4nccc(-c5cccnc5)n4)c3)cc(C(F)(F)F)c2)cn1` [Nilotinib] + Nc1nc2[nH]cc(CCc3ccc(C(=O)N[C@@H](CCC(=O)O)C(=O)O)cc3)c2c(=O)[nH]1 [Pemetrexed] (partner 0.2 µM) has a relative viability ([1]; first compound 0.003162 µM) of 1.17, a relative viability ([1]; first compound 0.01 µM) of 1.55 and a relative viability ([1]; first compound 0.03162 µM) of 1.13. The relative viability ([1]; first compound 0.1 µM) was 1.15, the relative viability ([2]; first compound 0.001 µM) was 0.294 and the relative viability ([2]; first compound 0.003162 µM) was 0.298. The relative viability ([2]; first compound 0.01 µM) was 0.257, the relative viability ([2]; first compound 0.03162 µM) was 0.211 and the relative viability ([2]; first compound 0.1 µM) was 0.235. It also gave a relative viability ([3]; first compound 0.001 µM) of 0.187, a relative viability ([3]; first compound 0.003162 µM) of 0.175 and a relative viability ([3]; first compound 0.01 µM) of 0.169. The relative viability ([3]; first compound 0.03162 µM) was 0.144, the relative viability ([3]; first compound 0.1 µM) was 0.152 and the relative viability ([4]; first compound 0.001 µM) was 0.958. The relative viability ([4]; first compound 0.003162 µM) was 0.841, the relative viability ([4]; first compound 0.01 µM) was 1.05 and the relative viability ([4]; first compound 0.03162 µM) was 0.868. The relative viability ([4]; first compound 0.1 µM) was 0.503, the relative viability ([5]; first compound 0.001 µM) was 0.718 and the relative viability ([5]; first compound 0.003162 µM) was 0.753. The relative viability ([5]; first compound 0.01 µM) was 0.793, the relative viability ([5]; first compound 0.03162 µM) was 0.718 and the relative viability ([5]; first compound 0.1 µM) was 0.428. It also gave a relative viability ([6]; first compound 0.001 µM) of 0.239, a relative viability ([6]; first compound 0.003162 µM) of 0.324 and a relative viability ([6]; first compound 0.01 µM) of 0.195. For the same molecule, the relative viability ([6]; first compound 0.03162 µM) was 0.309, the relative viability ([6]; first compound 0.1 µM) was 0.171 and the relative viability ([7]; first compound 0.001 µM) was 0.0733. For the same molecule, the relative viability ([7]; first compound 0.003162 µM) was 0.0599, the relative viability ([7]; first compound 0.01 µM) was 0.0632 and the relative viability ([7]; first compound 0.03162 µM) was 0.0736. The relative viability ([7]; first compound 0.1 µM) was 0.0505, the relative viability ([8]; first compound 0.003162 µM) was 0.963 and the relative viability ([8]; first compound 0.01 µM) was 0.952. It also gave a relative viability ([8]; first compound 0.1 µM) of 0.852, a relative viability ([9]; first compound 0.001 µM) of 1 and a relative viability ([9]; first compound 0.01 µM) of 0.607. It also gave a relative viability ([9]; first compound 0.03162 µM) of 0.642, a relative viability ([9]; first compound 0.1 µM) of 0.517 and a relative viability ([10]; first compound 0.001 µM) of 0.447. The relative viability ([10]; first compound 0.003162 µM) was 0.409, the relative viability ([10]; first compound 0.01 µM) was 0.438 and the relative viability ([10]; first compound 0.03162 µM) was 0.467. The relative viability ([10]; first compound 0.1 µM) was 0.351, the relative viability ([11]; first compound 0.001 µM) was 0.768 and the relative viability ([11]; first compound 0.003162 µM) was 0.78. It also gave a relative viability ([11]; first compound 0.01 µM) of 0.846, a relative viability ([11]; first compound 0.03162 µM) of 0.717 and a relative viability ([11]; first compound 0.1 µM) of 0.9. It also gave a relative viability ([12]; first compound 0.001 µM) of 0.409, a relative viability ([12]; first compound 0.003162 µM) of 0.526 and a relative viability ([12]; first compound 0.01 µM) of 0.39. The relative viability ([12]; first compound 0.03162 µM) was 0.375 and the relative viability ([12]; first compound 0.1 µM) was 0.498.
